We go through 16 compounds from ChEMBL document CHEMBL5233215, “Recent developments of chalcones as potential antibacterial agents in medicinal chemistry” (Eur J Med Chem, 2020).

Common to all, as to assay type: functional
Experiment [1] concerns Staphylococcus aureus. The experiment is described as follows: Antibacterial activity methicillin-resistant Staphylococcus aureus USA300 assessed as inhibition of bacterial growth by CLSI based microbroth dilution assay.
Another experiment has as its system Bacillus anthracis. As to the kind of experiment: Antibacterial activity Bacillus anthracis Sterne 34F2 assessed as inhibition of bacterial growth by CLSI based microbroth dilution assay.
Experiment [2] has as its system Staphylococcus aureus. As to the kind of experiment: Antibacterial activity methicillin-sensitive Staphylococcus aureus ATCC 29213 assessed as inhibition of bacterial growth by CLSI based microbroth dilution assay. Background: Broth dilution looks for growth in wells or tubes with falling amounts of substance.
In experiment [3] the test system is Escherichia coli. The experiment is described as follows: Antibacterial activity Escherichia coli NCIM 2918 assessed as inhibition of bacterial growth incubated for 24 hrs by serial dilution technique.
The test system of experiment [4] is Bacillus subtilis. The experiment is described as follows: Antibacterial activity Bacillus subtilis NCIM 2063 assessed as inhibition of bacterial growth incubated for 24 hrs by serial dilution technique.
In experiment [5] the test system is Staphylococcus aureus. The experiment is described as follows: Antibacterial activity Staphylococcus aureus NCIM 2079 assessed as inhibition of bacterial growth incubated for 24 hrs by serial dilution technique.
Experiment [6] has as its system Pectobacterium carotovorum. The experiment is described as follows: Antibacterial activity Pectobacterium carotovorum assessed as inhibition of bacterial growth after 18 hrs by broth dilution method.
The subject of experiment [7] is Bacillus subtilis. The experiment is described as follows: Antibacterial activity Bacillus subtilis assessed as inhibition of bacterial growth after 18 hrs by broth dilution method.
In a further experiment the test system is Bacillus cereus. The experiment is described as follows: Antibacterial activity Bacillus cereus assessed as inhibition of bacterial growth after 18 hrs by broth dilution method.
In experiment [8] the test system is Escherichia coli. As to the kind of experiment: Antibacterial activity Escherichia coli assessed as inhibition of bacterial growth after 18 hrs by broth dilution method.
The subject of experiment [9] is Staphylococcus aureus. As to the kind of experiment: Antibacterial activity Staphylococcus aureus assessed as inhibition of bacterial growth after 18 hrs by broth dilution method.
Experiment [10] deals with Staphylococcus aureus. As to the kind of experiment: Antibacterial activity methicillin-resistant Staphylococcus aureus MRSA ST-5457 assessed as inhibition of bacterial growth incubated for 16 to 24 hrs by broth microdilution assay. The note with it: time 16-24 hrs.
Experiment [11] deals with Staphylococcus aureus. The experiment is described as follows: Antibacterial activity methicillin-resistant Staphylococcus aureus MRSA B-10732 assessed as inhibition of bacterial growth incubated for 16 to 24 hrs by broth microdilution assay. The note with it: time 16-24 hrs.
In experiment [12] the test system is Staphylococcus aureus. As to the kind of experiment: Antibacterial activity methicillin-resistant Staphylococcus aureus MRSA P-6642 assessed as inhibition of bacterial growth incubated for 16 to 24 hrs by broth microdilution assay. As to conditions: time 16-24 hrs.
The test system of experiment [13] is Staphylococcus aureus. As to the kind of experiment: Antibacterial activity methicillin-resistant Staphylococcus aureus MRSA P-8029 assessed as inhibition of bacterial growth incubated for 16 to 24 hrs by broth microdilution assay. The note with it: time 16-24 hrs.
In experiment [14] the test system is Staphylococcus aureus. The experiment is described as follows: Antibacterial activity methicillin-resistant Staphylococcus aureus MRSA ST-10342 assessed as inhibition of bacterial growth incubated for 16 to 24 hrs by broth microdilution assay. As to conditions: time 16-24 hrs.
Experiment [15] relates to Staphylococcus aureus. The experiment is described as follows: Antibacterial activity methicillin-resistant Staphylococcus aureus MRSA ST-2438 assessed as inhibition of bacterial growth incubated for 16 to 24 hrs by broth microdilution assay. As to conditions: time 16-24 hrs.
Experiment [16] deals with Staphylococcus aureus. As to the kind of experiment: Antibacterial activity methicillin-resistant Staphylococcus aureus MRSA B-10760 assessed as inhibition of bacterial growth incubated for 16 to 24 hrs by broth microdilution assay. The note with it: time 16-24 hrs.
Experiment [17] has as its system Staphylococcus aureus. The experiment is described as follows: Antibacterial activity methicillin-resistant Staphylococcus aureus MRSA ST-2071 assessed as inhibition of bacterial growth incubated for 16 to 24 hrs by broth microdilution assay. As to conditions: time 16-24 hrs.
Experiment [18] deals with Staphylococcus aureus. The experiment is described as follows: Antibacterial activity methicillin-resistant Staphylococcus aureus MRSA ST-1745 assessed as inhibition of bacterial growth incubated for 16 to 24 hrs by broth microdilution assay. The note with it: time 16-24 hrs.
Experiment [19] concerns Staphylococcus aureus. The experiment is described as follows: Antibacterial activity methicillin-resistant Staphylococcus aureus MRSA ST-3151 assessed as inhibition of bacterial growth incubated for 16 to 24 hrs by broth microdilution assay. As to conditions: time 16-24 hrs.
The test system of experiment [20] is Staphylococcus aureus. As to the kind of experiment: Antibacterial activity methicillin-resistant Staphylococcus aureus OM584 assessed as inhibition of bacterial growth by liquid dilution method.
Experiment [21] relates to Staphylococcus aureus. The experiment is described as follows: Antibacterial activity methicillin-resistant Staphylococcus aureus OM481 assessed as inhibition of bacterial growth by liquid dilution method.
The test system of experiment [22] is Staphylococcus aureus. The experiment is described as follows: Antimicrobial activity against Staphylococcus aureus MTCC 1430 assessed as bacterial growth inhibition incubated for 24 hrs by broth micro dilution method.
Experiment [23] relates to Bacillus subtilis. As to the kind of experiment: Antimicrobial activity against Bacillus subtilis MTCC 441 assessed as bacterial growth inhibition incubated for 24 hrs by broth micro dilution method.
In another experiment the test system is Pseudomonas aeruginosa. As to the kind of experiment: Antimicrobial activity against Pseudomonas aeruginosa MTCC 424 assessed as bacterial growth inhibition incubated for 24 hrs by broth micro dilution method.
Experiment [24] has as its system Escherichia coli. As to the kind of experiment: Antimicrobial activity against Escherichia coli MTCC 1573 assessed as bacterial growth inhibition incubated for 24 hrs by broth micro dilution method.
The test system of experiment [25] is Staphylococcus aureus. The experiment is described as follows: Antibacterial activity methicillin-sensitive Staphylococcus aureus ATCC 25923 assessed as inhibition of bacterial growth after 24 hrs by microdilution broth method.
Experiment [26] relates to Staphylococcus aureus. The experiment is described as follows: Antibacterial activity methicillin-resistant Staphylococcus aureus ATCC 33591 assessed as inhibition of bacterial growth after 24 hrs by microdilution broth method.
Experiment [27] concerns Staphylococcus epidermidis. As to the kind of experiment: Antibacterial activity Staphylococcus epidermidis NBRC 12993 assessed as inhibition of bacterial growth after 48 hrs by two fold dilution method.
The subject of experiment [28] is Bacillus subtilis. The experiment is described as follows: Antibacterial activity Bacillus subtilis NBRC 3757 assessed as inhibition of bacterial growth after 48 hrs by two fold dilution method.
Another experiment has as its system Micrococcus luteus. As to the kind of experiment: Antibacterial activity Micrococcus luteus NBRC 333 assessed as inhibition of bacterial growth after 48 hrs by two fold dilution method.

Each structure is given as a SMILES string. Values after ≈ are worked out from the molar mass of the structure shown.

As a reminder, the MIC is the smallest concentration in the dilution series that meets the test's criterion for growth inhibition.

For the compound `CC1CCN(c2ccc(/C=C/C(=O)c3ccc(O)cc3O)cc2)CC1`, the MIC with Staphylococcus aureus [1] came to 3.12 µg/mL (≈ 9.26 µM); with Bacillus anthracis, 1.56 µg/mL (≈ 4.62 µM); in the experiment on Staphylococcus aureus [2] it was 6.25 µg/mL (≈ 18.5 µM).
As for `O=C(/C=C/c1ccc(Br)cc1)c1ccc(Cl)cc1`, the minimum inhibitory concentration (MIC) with Escherichia coli [3], with Bacillus subtilis [4] and with Staphylococcus aureus [5] was 1000 µg/mL (≈ 3110 µM) each time.
Take `COc1cccc(/C=C/C(=O)c2ccc(O)cc2O)c1OC`: the MIC in experiment [6] was found to be 125 µg/mL (≈ 416 µM); in the experiment on Bacillus subtilis [7] it was 125 µg/mL (≈ 416 µM); in the experiment with Bacillus cereus it was 62.5 µg/mL (≈ 208 µM); with Escherichia coli [8], 62.5 µg/mL (≈ 208 µM); in the experiment on Staphylococcus aureus [9], 62.5 µg/mL (≈ 208 µM).
`COc1ccc(/C=C/C(=O)c2ccc(O)c(C)c2)cc1`: in the experiment on Bacillus anthracis, the MIC came to 12.5 µg/mL (≈ 46.6 µM).
Regarding `O=C(/C=C/c1ccc(O)c(O)c1)c1ccc(-c2ccccc2)cc1`, the MIC with Staphylococcus aureus [10], in the experiment with Staphylococcus aureus [11], in the experiment with Staphylococcus aureus [12], in the experiment with Staphylococcus aureus [13], with Staphylococcus aureus [14] and in the experiment with Staphylococcus aureus [15] was 25 µg/mL (≈ 79 µM) throughout. The MIC with Staphylococcus aureus [16], with Staphylococcus aureus [17], with Staphylococcus aureus [18] and in the experiment with Staphylococcus aureus [19] was 25 µg/mL (≈ 79 µM) each time.
As to `CCN(CC)c1ccc(/C=C/C(=O)c2ccc(O)cc2O)cc1`, the MIC in the experiment on Staphylococcus aureus [1] came out at 3.12 µg/mL (≈ 10 µM); in the experiment on Bacillus anthracis, 3.12 µg/mL (≈ 10 µM); in the experiment with Staphylococcus aureus [2] it was 6.25 µg/mL (≈ 20.1 µM).
`COc1cc(C(=O)/C=C/c2ccc(O)cc2)ccc1O`: the minimal inhibitory concentration (MIC) in the experiment with Staphylococcus aureus [10], with Staphylococcus aureus [11], in the experiment with Staphylococcus aureus [12], with Staphylococcus aureus [13], in the experiment with Staphylococcus aureus [14] and in the experiment with Staphylococcus aureus [15] was 12.5 µg/mL (≈ 46.2 µM) in each case. In addition, the MIC in the experiment on Staphylococcus aureus [16], in the experiment on Staphylococcus aureus [17], in the experiment on Staphylococcus aureus [18] and in the experiment with Staphylococcus aureus [19] was 12.5 µg/mL (≈ 46.2 µM) in each case.
Regarding `CC(C)=CCc1c(O)ccc(C(=O)/C=C/c2ccc(O)c(C)c2)c1O`, the results for the MIC in the experiment on Staphylococcus aureus [20] and with Staphylococcus aureus [21] were 8 µg/mL (≈ 23.6 µM) and 16 µg/mL (≈ 47.3 µM), respectively.
Regarding `Cc1c(C(F)(F)F)cc(Cl)c(Cl)c1-n1nnc(C(=O)/C=C/c2cn(-c3ccccc3)nc2-c2ccc(Cl)cc2)c1C`, the MIC was 12.5 µg/mL (≈ 20.3 µM) with Staphylococcus aureus [22], 6.25 µg/mL (≈ 10.1 µM) in the experiment with Bacillus subtilis [23], 3.12 µg/mL (≈ 5.06 µM) in the experiment with Pseudomonas aeruginosa and 3.12 µg/mL (≈ 5.06 µM) in the experiment on Escherichia coli [24].
On to `O=C(/C=C/c1ccc(Cl)cc1)c1ccc(O)cc1`, for which the minimum inhibitory concentration (MIC) with Staphylococcus aureus [10], in the experiment on Staphylococcus aureus [11], in the experiment on Staphylococcus aureus [12], in the experiment on Staphylococcus aureus [13], with Staphylococcus aureus [14] and in the experiment on Staphylococcus aureus [15] was 25 µg/mL (≈ 96.6 µM) in each case. The MIC with Staphylococcus aureus [16], in the experiment on Staphylococcus aureus [17], with Staphylococcus aureus [18] and with Staphylococcus aureus [19] was 25 µg/mL (≈ 96.6 µM) each time.
As for `O=C(/C=C/c1ccccc1)c1ccc(O)cc1O` [2',4'-DIHYDROXYCHALCONE], the figures for the MIC with Staphylococcus aureus [25] and in the experiment on Staphylococcus aureus [26] were 50 µg/mL (≈ 208 µM) and 100 µg/mL (≈ 416 µM), respectively.
Turning to `CC(C)=CCc1cc(C(=O)/C=C/c2ccc(O)cc2)c(O)cc1O` [BROUSSOCHALCONE B], the values for the MIC (in experiment [27]; in the experiment with Bacillus subtilis [28]; in the experiment with Micrococcus luteus) were 8 µg/mL (≈ 24.7 µM), 8 µg/mL (≈ 24.7 µM) and 16 µg/mL (≈ 49.3 µM), respectively.
For `CC(C)=CCc1c(O)ccc(C(=O)/C=C/c2ccc(O)cc2)c1O` [ISOBAVACHALCONE], the MIC in experiment [27] was 4 µg/mL (≈ 12.3 µM); with Staphylococcus aureus [20] it was 8 µg/mL (≈ 24.7 µM); with Staphylococcus aureus [21] it was 8 µg/mL (≈ 24.7 µM); in the experiment with Bacillus subtilis [28] it was 4 µg/mL (≈ 12.3 µM); in the experiment with Micrococcus luteus it was 4 µg/mL (≈ 12.3 µM).
Turning to `O=C(/C=C/c1ccc(O)cc1)c1ccc(O)cc1O` [ISOLIQUIRITIGENIN], the MIC in experiment [6] came to 15.5 µg/mL (≈ 60.5 µM); with Bacillus subtilis [7] it was 31.3 µg/mL (≈ 122 µM); in the experiment on Bacillus cereus, 15.5 µg/mL (≈ 60.5 µM); in the experiment on Escherichia coli [8], 31.3 µg/mL (≈ 122 µM); in the experiment on Staphylococcus aureus [9], 7.8 µg/mL (≈ 30.4 µM).
On to `COc1ccc(C(=O)/C=C/c2ccc(O)cc2)c(O)c1C/C=C(\C)CCC=C(C)C` [XANTHOANGELOL F], for which the MIC (in experiment [27]; with Bacillus subtilis [28]; with Micrococcus luteus) was 64 µg/mL (≈ 157 µM) in each case.
As for `CC(C)=CCC/C(C)=C/Cc1c(O)ccc(C(=O)/C=C/c2ccc(O)cc2)c1O` [XANTHOANGELOL], the MIC (in experiment [27]; with Bacillus subtilis [28]; with Micrococcus luteus) was 4 µg/mL (≈ 10.2 µM) in each case.
